Earlier results on one compound are cited in patent US7279279B2, “Compositions and methods for determining anti-viral drug susceptibility and resistance and anti-viral drug screening” (Monogram Biosciences, Inc., priority 1996, dated 2007).

The subject of the data set is HIV. To be noted: background statement on drug treatment of HIV; no test conditions given.

As for `Cc1cn([C@H]2C[C@H](N=[N+]=[N-])[C@@H](CO)O2)c(=O)[nH]c1=O` [AZT, zidovudine], the reduce virus replication result is “about 90%”.
